Assay results reported in patent US20260262643A1, “HERBICIDAL BENZOXAZINES” (FMC CORPORATION, priority 2022, published 2026).

Experiments:
Experiment in all cases: Test A preemergence
Settings in all cases: 1000 g ai/ha, 0 to 100 scale (0 no effect, 100 complete control), 10 days
barnyardgrass = format: in vivo, Echinochloa crusgalli
How it was run: (§1)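 Seeds in loam–sand blend received a directed preemergence soil spray of compound in non-phytotoxic solvent with surfactant; postemergence plants (2–10 cm, one- to two-leaf stage) were sprayed with the same formulation. After 10 days in greenhouse, injury was rated visually versus untreated controls, 0 (no effect) to 100 (complete control).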

foxtail, giant = format: in vivo, Setaria faberi
How it was run: as §1

kochia = format: in vivo, Bassia scoparia
How it was run: as §1

Pigweed, Redroot = format: in vivo, Amaranthus retroflexus
Description: Seeds of plant species selected from barnyardgrass (Echinochloa crusgalli), blackgrass (Alopecurus myosuroides), corn (Zea mays), foxtail, giant (giant foxtail, Setaria faberi), goosegrass (Eleusine indica), kochia (Bassia scoparia), oat, wild (wild oat, Avena fatua), pigweed, palmer (palmer amaranth, palmer pigweed, Amaranthus palmeri), Pigweed, Redroot (redroot pigweed, Amaranthus retroflexus), ragweed (common ragweed, Ambrosia artemisiifolia), ryegrass, Italian (italian ryegrass, Lolium multiflorum), soybean (Glycine max), and wheat (Triticum aestivum) were planted into a blend of loam soil and sand and treated preemergence with a directed soil spray using test chemicals formulated in a non-phytotoxic solvent mixture which included a surfactant. At the same time, plants selected from these crops and weed species and also galium (catchweed bedstraw, Galium aparine) and horseweed (Erigeron canadensis) were planted in pots containing the same blend of loam soil and sand and treated with postemergence applications of test chemicals formulated in the same manner. Plants ranged in height from 2 to 10 cm and were in the one- to two-leaf stage for the postemergence treatment. Treated plants and untreated controls were maintained in a greenhouse for 10 days, after which time all treated plants were compared to untreated controls and visually evaluated for injury. Plant response ratings, summarized in Table A, are based on a 0 to 100 scale where 0 is no effect and 100 is complete control. A dash (-) response means no test result.

ragweed = format: in vivo, Ambrosia artemisiifolia
How it was run: as §1

ryegrass, Italian = format: in vivo, Lolium multiflorum
How it was run: as §1

Compound	Plant response rating, Barnyardgrass (barnyardgrass)	Plant response rating, Foxtail, Giant (foxtail, giant)	Plant response rating, Kochia (kochia)	Plant response rating, Pigweed, Redroot (Pigweed, Redroot)	Plant response rating, Ragweed (ragweed)	Plant response rating, Ryegrass, Italian (ryegrass, Italian)
CC1CN(C(=O)c2ccnc(-n3cncn3)c2)c2cccc(Cl)c2O1 (stereo not drawn) [Compound 9]	0	0	0	0	0	0
CCC1CN(C(=O)c2ccnc(-n3cncn3)c2)c2cccc(C)c2O1 (stereo not drawn) [Compound 11]	30	100	0	90	0	50
